One data set concerns the target acetylcholine esterase (Homo sapiens, UniProt P22303). Kind of data set: Acetylcholine esterase functional inhibition. It is filed as biochemical.
A further data set concerns Male Sprague-Dawley rats. Kind of data set: Spontaneous locomotor activity (LMA) and rearing in rats. Format: in vivo. As for the experimental part: Behavioral tests of locomotor activity were conducted to determine the effects of exemplary low impact ampakines CX717 and CX1739 on normal, and amphetamine-stimulated activity in animal behavioral models. […] Male Sprague-Dawley rats (175-200 g; Charles River Laboratories) were given ad libitum food and water and maintained on a 12:12 hr light: dark cycle with lights on at 6:00 a.m. Each of ten test cages (standard polycarbonate animal cage; 26 cm×48 cm×20 cm; W×L×H) were surrounded by two photo beam arrays, placed to detect locomotor activity with a lower array and rearing behavior with an upper array. Locomotor and rearing activity were continuously monitored and recorded by computer for all ten test cages (Photo beam Activity System, San Diego Instruments, San Diego, Calif.). The test period was chosen as the 1st few hours of the dark period of the light: dark cycle. Approximately 15 min before the start of the dark cycle, the rats were removed from the housing facility, transported to the testing room and injected with CX717, CX1739 or vehicle and placed into photo beam activity cages. Immediately after all rats were injected the room lights were turned off and spontaneous activity data were collected for the next four hours. CX717 and CX1739 groups (0.1 to 10 mg/kg) were compared to the vehicle group.

In the next data set the test system is Swiss Webster mice. Put plainly: PTZ Proconvulsant test. Format: in vivo. Conditions: doses of 30 mg/kg or less, p.o. The protocol:
Follow on studies of CX717 and 1739 are continuing, employing additional well-known models for ADHD drug efficacy, coupled with a variety of ongoing safety studies. Preliminary safety studies already completed have included a range of toxicity studies focusing on critical convulsant risks widely observed for previously-studied ampakines. Using the well known PTZ Proconvulsant test, non-GLP safety studies were conducted to examine proconvulsant activity of CX717. Swiss Webster mice (n=12/group) were dosed with CX717 (3, 10 or 30 mg/kg p.o.), vehicle (0.5% methocel p.o.) or a positive control, CGS8216 (10 mg/kg in 70% PEG300: 30% water i.p.). Thirty minutes later, the GABA-A antagonist, pentylenetetrazol (PTZ) was infused in the tail vein until tonic seizures were observed. The time at which the first clonic and tonic seizure was observed was noted and used to determine the dose of PTZ necessary to induce both clonic and tonic seizure.

In data set [1] the test system is Rat (SD). Kind of data set: Radial arm maze - spatial memory. It is filed as in vivo. Particulars: for Minimum Effective Dose: IP. As for the experimental part:
Yet another animal model for evaluating ampakine drug activity employed herein is the well known and widely accepted Radial Arm Maze model. CX717 was tested for its ability to improve the performance of aged rats in an eight-arm radial maze using a cross-over design study. This behavioral test uses a standard eight-arm radial maze wherein five arms were open and baited with food pellets for the first morning session. Each animal was allowed to consume the food rewards present in the open arms and was then returned to its home cage. Six hours later animals were returned to the maze, wherein all eight-arms were open, but only the three arms previously closed contained food rewards. Scoring was based on the number of correct choices before an incorrect choice (re-entering an arm that was visited during the morning acquisition session) was made and on the total number of incorrect choices made before all three of the still baited arms were visited. CX717 was tested at six doses (0.03, 0.1, 0.3, 1, 3 and 10 mg/kg in hydroxypropyl β-cyclodextran, i.p.), administered 30 min prior to the start of the morning acquisition session and no drug was given prior to the second trial six hours later.
For CX1739 male Sprague-Dawley rats were trained to perform the win shift assay on the radial arm maze for approximately 10 weeks prior to the study. On each day of training and testing, each rat completed one trial, split into a sample phase and a test phase. During the sample phase, the rat was placed on a 12-arm radial arm maze surrounded by visual cues. Food wells at the end of each arm were baited with sucrose pellets but access to three arms, selected randomly, was blocked with a clear plastic divider at the arm entrance. The rat was allowed 5 minutes to search the maze and collect the available food pellets before being removed from the maze. Fifteen minutes later the rat was returned to the maze for the test phase of the trial. During the test phase, the rat was allowed access to all 12 arms of the maze but only the arms that had been blocked previously were baited with sucrose pellets. The rat was allowed 3 minutes to collect the available food pellets before being removed from the maze. On test days, rats were injected with CX1739 (0.03-1.0 mg/kg, i.p.) or vehicle immediately following the sample phase of the study. The primary dependent measure was the cumulative number of arm entries prior to entering the first, second, and third baited arm during the test phase.

Data set [2] deals with Rat (SD). Put plainly: Amphetamine-stimulated locomotion and rearing in rats. Format: in vivo. Conditions: for Minimum Effective Dose: PO, dose range 1-10 mg/kg. The protocol: (§1) Effects of exemplary low impact ampakines were also evaluated in mice for the ability to inhibit amphetamine-stimulated locomotor activity. Mice were placed in the locomotor chamber for 20 min to habituate, removed, injected with either vehicle or anti-ADHD ampakine (CX717), and 5 min later injected with 2 mg/kg i.p. Amphetamine. Mice were returned to the locomotor chamber 10 min later, and their activity measured for a further 15 min. In related studies, adult male CD1 mice or male Sprague-Dawley rats were acclimated in a test chamber for 20 minutes removed and dosed i.p. (mice) or orally (rats) with CX1739, vehicle, or a reference compound. Five (mice) or 10 (rats) were then injected with amphetamine (2 mg/kg, i.p.) or saline vehicle and were returned to the activity test chamber.

The test system of another data set is Mouse (CD1). Kind of data set: Amphetamine-stimulated locomotion in mice. Format: in vivo. Particulars: for Minimum Effective Dose: IP, dose range 5.6-30 mg/kg; for amphetamine-stimulated locomotion, pre-treatment: amphetamine 2 mg/kg i.p. The protocol: as §1
Data set [3] addresses cytosolic testosterone receptor (Homo sapiens, UniProt P10275). Put plainly: Radioligand binding, testosterone receptor. Particulars: read-out: inhibition of binding of a reference ligand.
Another data set deals with 64 GPCRs. Kind of data set: Cell-based functional GPCR assays (Table 4.2.2-1). Particulars: agonist at 30 μM, antagonist at 37.5 μM; 64 functional GPCR assays. The protocol:
Additional studies involving G-protein coupled receptor assays were conducted for CX1739 to further illustrate the scope and flexibility of binding activity profiling available for ampakine screening according to the invention. CX1739 was evaluated in a second broad in vitro pharmacology screen, comprising cell-based functional G-protein coupled receptor assays for 64 GPCRs, identified in Table 4.2.2-1 below.

The subject of data set [4] is non-selective alpha1 adrenergic receptor. Put plainly: Radioligand binding, alpha1 adrenergic receptor. Conditions: 100 μM.
[5] abbreviates: aged rats, eight-arm maze, 0.03-10 mg/kg i.p.

SMILES strings stand for the structures. pKi: −log10 of the molar value.

Sequence of acetylcholine esterase (P22303 32-614): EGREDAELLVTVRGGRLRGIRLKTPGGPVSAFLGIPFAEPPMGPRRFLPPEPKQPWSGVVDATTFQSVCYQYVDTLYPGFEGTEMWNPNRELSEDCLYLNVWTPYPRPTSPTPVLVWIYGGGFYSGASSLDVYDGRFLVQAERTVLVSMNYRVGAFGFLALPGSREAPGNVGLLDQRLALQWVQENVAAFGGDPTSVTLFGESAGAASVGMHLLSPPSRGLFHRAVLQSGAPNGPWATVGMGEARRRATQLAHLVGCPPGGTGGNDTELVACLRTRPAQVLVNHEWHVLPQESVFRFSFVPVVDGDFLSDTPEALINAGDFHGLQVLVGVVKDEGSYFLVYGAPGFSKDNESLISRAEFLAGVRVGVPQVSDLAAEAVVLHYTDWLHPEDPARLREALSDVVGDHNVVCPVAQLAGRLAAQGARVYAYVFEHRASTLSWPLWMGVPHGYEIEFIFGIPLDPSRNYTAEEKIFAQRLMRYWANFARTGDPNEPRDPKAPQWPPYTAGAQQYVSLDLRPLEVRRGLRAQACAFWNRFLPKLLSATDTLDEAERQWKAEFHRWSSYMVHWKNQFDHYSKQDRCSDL
Sequence of cytosolic testosterone receptor (P10275 whole entry): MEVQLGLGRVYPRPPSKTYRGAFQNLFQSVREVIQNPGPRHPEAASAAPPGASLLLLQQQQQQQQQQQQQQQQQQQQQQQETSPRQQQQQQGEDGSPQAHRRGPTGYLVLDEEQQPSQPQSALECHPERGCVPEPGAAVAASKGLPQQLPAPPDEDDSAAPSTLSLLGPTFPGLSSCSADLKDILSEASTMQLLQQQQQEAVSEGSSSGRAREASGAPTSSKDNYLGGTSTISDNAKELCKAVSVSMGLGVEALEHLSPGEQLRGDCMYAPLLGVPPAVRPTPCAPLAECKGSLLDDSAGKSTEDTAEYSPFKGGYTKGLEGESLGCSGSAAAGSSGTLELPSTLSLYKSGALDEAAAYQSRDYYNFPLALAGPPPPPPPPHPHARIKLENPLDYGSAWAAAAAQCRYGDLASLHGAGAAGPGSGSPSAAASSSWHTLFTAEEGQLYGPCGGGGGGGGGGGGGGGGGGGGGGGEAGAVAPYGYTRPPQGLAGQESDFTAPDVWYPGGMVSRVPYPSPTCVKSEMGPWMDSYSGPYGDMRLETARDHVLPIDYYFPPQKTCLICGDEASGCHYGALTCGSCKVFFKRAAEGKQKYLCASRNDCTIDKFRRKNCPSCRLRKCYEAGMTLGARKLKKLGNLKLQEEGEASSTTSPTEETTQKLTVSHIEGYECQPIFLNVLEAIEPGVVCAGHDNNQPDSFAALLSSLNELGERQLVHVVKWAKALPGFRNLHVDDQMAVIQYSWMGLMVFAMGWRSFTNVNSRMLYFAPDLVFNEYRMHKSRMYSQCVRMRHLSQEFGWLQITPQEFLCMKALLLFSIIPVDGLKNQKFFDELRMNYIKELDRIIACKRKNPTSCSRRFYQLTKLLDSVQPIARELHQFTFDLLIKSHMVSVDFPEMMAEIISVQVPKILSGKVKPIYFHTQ

On acetylcholine esterase, `O=C(c1ccc2nonc2c1)N1CCOCC1` [CX717, 1-(benzofurazan-5-ylcarbonyl)morpholine] showed a pKi of 3.78. On acetylcholine esterase (100 μM), this compound registered an inhibition at 100 µM of 53%. Besides, the spontaneous rearing entry in the data set on Male Sprague-Dawley rats (10 mg/kg vs. vehicle, p<0.01) is reported as “significant decrease”. Further, the “pharmacodynamics of the effect on rearing behavior” value with Male Sprague-Dawley rats (10 mpk, 1, 2, 3 and 4 hours post treatment) is “prolonged action”. The spontaneous locomotor activity result with Male Sprague-Dawley rats (first hour following ip administration, ANOVA=0.45) is given as “no effect”. Moreover, the “proconvulsant activity: dose of PTZ required to elicit a seizure” value in the data set on Swiss Webster mice was “did not decrease the dose of PTZ required to elicit a seizure”. Moreover, the “Minimum Effective Dose” value in the data set on Rat (SD) [1] came out at 0.3 mg/kg. Moreover, the “doses with highly significant difference in performance between drug and vehicle days” value in the data set on Rat (SD) [1] (Kruskal-Wallace P=0.008, Wilcoxon Signed Rank Test) is at least 0.3 mg/kg. In the data set on Rat (SD) [1] (setting [5]), the “number of correct choices (before making an error) in the second maze session” value is recorded as “dose-dependent increase” and the “total number of errors” value was “decrease”. The amphetamine-stimulated locomotion activity result in the data set on Rat (SD) [2] (3 mg/kg) is recorded as “significant decrease”. Also, the amphetamine-stimulated rearing entry with Rat (SD) [2] (1 and 3 mg/kg) was “inhibits rearing”. In addition, in the data set with Rat (SD) [2], the “Minimum Effective Dose” value was found to be 1 mg/kg. Also, in the data set with Mouse (CD1), the “Minimum Effective Dose” value is 18 mg/kg and the “amphetamine-stimulated locomotion, pre-treatment” value is recorded as “inhibited amphetamine-stimulated locomotion in mice in a dose-dependent manner”.

As for `CN(C(=O)c1ccc2nonc2c1)C1CCOCC1` [CX1739, N-Methyl-N-tetrahydro-2H-pyran-4-yl-[2,1,3]-benzoxadiazole-5-carboxamide], in [3], the inhibition at 100 µM worked out at 64%. Further, the “GPCR agonist and antagonist activity” value in the data set on 64 GPCRs was “did not exhibit any significant agonist or antagonist activity”. In addition, in [4], the “inhibition of binding of a reference ligand” value was 67%. Moreover, in the data set with Rat (SD) [1] (0.3 mg/kg, 12-arm maze, p<0.05), the “entries before finding the third arm with a food pellet reward” value is given as “significantly fewer entries”. For the same compound, the “Minimum Effective Dose” value with Rat (SD) [1] was found to be 0.3 mg/kg; in the data set with Rat (SD) [2] it was 1 mg/kg; in the data set on Mouse (CD1), 30 mg/kg. Moreover, the “optimal dose (dose producing the maximal effect) in the maze assay” value in the data set on Rat (SD) [1] (ip) is listed as 0.3 mg/kg. Also, the amphetamine-stimulated rearing behavior entry with Rat (SD) [2] (rats, all doses tested) is “modest reduction”. In addition, the amphetamine-stimulated locomotion entry in the data set with Mouse (CD1) (30 mg/kg ip) is “significant decrease”. Moreover, the “amphetamine-stimulated locomotion, pre-treatment” value in the data set on Mouse (CD1) is “inhibited amphetamine-stimulated locomotion in mice in a dose-dependent manner”.
